Source: patent US11311501B2, “Mitoriboscins: mitochondrial-based therapeutics targeting cancer cells, bacteria, and pathogenic yeast” (LUNELLA BIOTECH, INC., priority 2017, dated 2022)
≈ marks a conversion by molar mass, not a printed value.

Columns and labels:
[1] = test system: MCF7 cells; assay: Seahorse XF96 metabolic flux analysis (OCR/ECAR); format: cell-based, human; details: for rank order potency to reduce maximal respiration and ATP production: top 10 hits, FIG. 10; for effect on glycolysis: ECAR; for inhibition of mitochondrial oxygen-consumption: FIGS. 7, 8 and 9
Excerpt: The present approach further involves methods of functional validation at step S105, during which a compound's function as a mitochondrial inhibitor may be confirmed. A number of methods may be used for functional validation, including, for example, metabolic flux analysis, mammosphere assays, viability assays, and antibiotic (anti-bacterial and/or anti-fungal) activity. For example, the inventors determined extracellular acidification rates (ECAR) and real-time oxygen consumption rates (OCR) for MCF7 cells using the Seahorse Extracellular Flux (XF96) analyzer (Seahorse Bioscience, MA, USA). MCF7 cells were maintained in DMEM supplemented with 10% FBS (fetal bovine serum), 2 mM GlutaMAX, and 1% Pen-Strep. 5,000 cells per well were seeded into XF96-well cell culture plates, and incubated overnight at 37° C. in a 5% CO2 humidified atmosphere. After 24 hours, cells were treated with selected compounds showing ATP-depletion without prominent cytotoxicity at various concentrations (or vehicle alone). After 72 hours of treatment, cells were washed in pre-warmed XF assay media (for OCR measurement, XF assay media was supplemented with 10 mM glucose, 1 mM Pyruvate, 2 mM L-glutamine and adjusted at pH 7.4). Cells were maintained in 175 μL/well of XF assay media at 37° C. in a non-CO2 incubator for 1 hour. During incubation, 25 μL of 80 mM glucose, 9 μM oligomycin, 1M 2-deoxyglucose (for ECAR measurement) and 25 μL of 10 μM oligomycin, 9 μM FCCP, 10 μM rotenone, 10 μM antimycin A (for OCR measurement) in XF assay media was loaded into the injection ports of the XFe-96 sensor cartridge. During the experiment, the instrument injected these inhibitors into the wells at a given time point, while ECAR/OCR was measured continuously. ECAR and OCR measurements were normalized by protein content (using the Sulphorhodamine B assay). Data sets were analyzed by XFe-96 software, using one-way ANOVA and Student's t-test calculations. All experiments were performed in triplicate, and results validated the mitochondrial inhibition effects of mitoriboscin compounds described herein. It should be appreciated that numerous methods are known for functional validation, and that persons of skill in the art may select one or more depending on the validation needs (e.g., other assays that measure or approximate mitochondrial function). The present approach involves methods of function validation of mitoriboscin compounds. For example, the inventors assessed functional validation of three candidates using the Seahorse Analyzer, which quantitatively measures oxygen consumption rate (OCR) and extracellular acidification rate (ECAR). OCR is a surrogate marker for OXPHOS and ECAR is a surrogate marker for glycolysis and L-lactate production.

[2] = test system: MRSA ATCC 43300; assay: MIC by broth dilution method; format: cell-based, Methicillin-resistant Staphylococcus aureus; details: for MIC 50% / MIC 99%: MRSA ATCC 43300
Method: (§1) The minimal inhibitory concentration (MIC) of the antibacterial compounds may be determined using the broth dilution method, according to CLSI guidelines. Test compound solutions (or antibiotic solutions used as positive controls) were diluted, serially, with MHB medium. Then, the suspensions of the microorganisms, prepared from overnight cultures of bacteria in the MHB medium, at a concentration of 10^6 CFU/ml, were added to each dilution in a 1:1 ratio. McFarland standards were used as a reference to adjust the turbidity of microorganism suspensions. Growth (or lack thereof) of the microorganisms was determined after incubation for 24 hours at 37° C. by turbidimetry (wavelength of 600 nm). MIC 50 and MIC 99 are defined as the minimum inhibitory concentration of the compound required for 50% and 99% inhibition of bacterial growth. […] The susceptibility test by measurement of MIC was performed in triplicate and repeated three times independently. Statistical significance was determined using the Student's t-test and values of less than 0.05 were considered significant.
(§2) In order to determine the minimal inhibitory concentration (MIC) for 24/F9, 24/D4 and 23/G4, the broth dilution method may be performed.

[3] = test system: P. auriginosa ATCC 27853; assay: MIC by broth dilution method; format: cell-based, P. aeruginosa
Method: as §1, with “nm).” for “nm). MIC 50 and MIC 99 are defined as the minimum inhibitory concentration of the compound required for 50% and 99% inhibition of bacterial growth.”, “independently.” for “independently. Statistical significance was determined using the Student's t-test and values of less than 0.05 were considered significant.”

[4] = test system: C. albicans; assay: MIC by broth dilution method; format: cell-based; details: C. albicans ATCC 13883
Method: as §1, §2

[5] = test system: MCF7 cells; assay: Mammosphere formation assay; format: cell-based, human; details: 5 μM, FIG. 5
Excerpt: The present approach involves methods of testing compounds, and in particular mitoriboscins, for anti-cancer properties. As discussed above, vHTS and computational chemistry may be used to identify candidate mitochondrial inhibitors. Those candidates may be tested for specific anti-cancer properties. For examples, the inventors compared seven candidate compounds in parallel for their ability to inhibit mammosphere formation in MCF7 cells. […] For example, 23/G4 (Group 1) reduced mammosphere formation by 50% at this concentration. Similarly, 24/F9 (Group 2) and 24/D4 (Group 3), both reduced mammosphere formation by ˜90%.

[6] = test system: Strept. pyogenes ATCC 19615; assay: MIC by broth dilution method; format: cell-based
Method: as §1, with “nm).” for “nm). MIC 50 and MIC 99 are defined as the minimum inhibitory concentration of the compound required for 50% and 99% inhibition of bacterial growth.”, “independently.” for “independently. Statistical significance was determined using the Student's t-test and values of less than 0.05 were considered significant.”

[7] = test system: E. coli ATCC 25922; assay: MIC by broth dilution method; format: cell-based; details: E. coli ATCC 25922, 24 hours at 37° C.
Method: as §1, with “nm).” for “nm). MIC 50 and MIC 99 are defined as the minimum inhibitory concentration of the compound required for 50% and 99% inhibition of bacterial growth.”, “independently.” for “independently. Statistical significance was determined using the Student's t-test and values of less than 0.05 were considered significant.”

[8] = test system: K. pneumoniae ATCC 13883; assay: MIC by broth dilution method; format: cell-based
Method: as §1, with “nm).” for “nm). MIC 50 and MIC 99 are defined as the minimum inhibitory concentration of the compound required for 50% and 99% inhibition of bacterial growth.”, “independently.” for “independently. Statistical significance was determined using the Student's t-test and values of less than 0.05 were considered significant.”

[9] = test system: Staph. aureus ATCC 25923 (MSSA); assay: MIC by broth dilution method; format: cell-based
Method: as §1, with “nm).” for “nm). MIC 50 and MIC 99 are defined as the minimum inhibitory concentration of the compound required for 50% and 99% inhibition of bacterial growth.”, “independently.” for “independently. Statistical significance was determined using the Student's t-test and values of less than 0.05 were considered significant.”

[10] = Staph. aureus ATCC 25923 (Table 3)

SMILES | rank order potency to reduce maximal respiration and ATP production [1] | MIC 50% [2] [µg/mL] | MIC 99% [2] [µg/mL] | sensitivity of MRSA ([2]; MRSA, summary of Table 4) | MIC 50% [3] [µg/mL] | MIC 99% [3] [µg/mL] | MIC 99% [4] [µg/mL] | effect on glycolysis [1] | inhibition of mitochondrial oxygen-consumption [1] | reduction of mammosphere formation [5] [%] | MIC 50% [6] [µg/mL] | MIC 99% [6] [µg/mL] | MIC 50% [7] [µg/mL] | MIC 99% [7] [µg/mL] | MIC 50% [8] [µg/mL] | MIC 99% [8] [µg/mL] | MIC 50% ([9]; MSSA ATCC 25923 (Table 4)) [µg/mL] | MIC 99% ([9]; MSSA ATCC 25923 (Table 4)) [µg/mL] | MIC 50% [9, 10] [µg/mL] | MIC 99% [9, 10] [µg/mL]
OC1C(NCc2ccccc2)CCCC1Oc1ccccc1Oc1cccc(F)c1 (centres unmarked) [23/E9] | top 6 |  |  |  |  |  |  |  |  |  |  |  |  |  |  |  |  |  |  | 
CCCc1ccc(OCc2ccccc2)c(CN2CCC3(CC2)CC(N(C)C)C(C)(O)CO3)c1 (centres unmarked) [24/D4] |  | 16 (≈ 34.3 µM) | >32 | sensitive | 16 (≈ 34.3 µM) | 32 (≈ 68.6 µM) | >64 | suppressed glycolysis | dose-dependently inhibited | ~90 | 16 (≈ 34.3 µM) | 32 (≈ 68.6 µM) | 16 (≈ 34.3 µM) | 32 (≈ 68.6 µM) | 16 (≈ 34.3 µM) | 32 (≈ 68.6 µM) | 16 (≈ 34.3 µM) | 32 (≈ 68.6 µM) | 16 (≈ 34.3 µM) | 32 (≈ 68.6 µM)
CN1CCN(C2CCN(Cc3cc(C(C)(C)C)ccc3OCc3ccccc3)CCC2O)CC1 (centres unmarked) [24/F9] | top 6 | 64 (≈ 137 µM) | >64 |  | >32 | >64 | >64 | suppressed glycolysis | dose-dependently inhibited | ~90 | 32 (≈ 68.7 µM) | 64 (≈ 137 µM) | 32 (≈ 68.7 µM) | 64 (≈ 137 µM) | 32 (≈ 68.7 µM) | 64 (≈ 137 µM) | 32 (≈ 68.7 µM) | 64 (≈ 137 µM) | 32 (≈ 68.7 µM) | 64 (≈ 137 µM)
CN1CCCN(C2CCN(Cc3cc(Cl)ccc3OCc3ccccc3)CCC2O)CC1 (centres unmarked) [24/H6] | top 6 |  |  |  |  |  |  |  |  |  |  |  |  |  |  |  |  |  |  | 
CN(C)C1CC2(CCN(Cc3cc(Cl)ccc3OCc3ccccc3)CC2)OCC1(C)O (centres unmarked) [24/H9] | top 6 |  |  |  |  |  |  |  |  |  |  |  |  |  |  |  |  |  |  | 
